Reference: patent publication US12029742B2, “Compositions and methods for the repair of myelin” (Duke University, priority 2014, dated 2024)

Columns and labels:
[1] = system: sepsis-induced myelin injury; test: CatWalk gait analysis of mice after perinatal sepsis-induced myelin injury; type: in vivo; settings: sepsis-injured mice
Description: The detection of differences in locomotor function is an important tool for the assessment of the severity of many conditions that affect the central nervous system (CNS), peripheral nervous system (PNS) and skeletal structures or muscles. A gait analysis system, such as the CatWalk™ XT, provides automatic and sensitive detection of a full range of parameters related to footprints and the dynamics of gait in animal testing.
The impact of oxysterol therapy on motor function in injured mice was also determined. Mice were subjected to sepsis-induced myelin injury on postnatal day 5. Twenty-four hours after injury, septic mice were divided into a vehicle control group and an oxysterol treated group. Treatment with 20α-hydroxycholesterol (100 mg/kg/day) was carried out daily for five days. At two months of age (adult), mice were evaluated on a CatWalk Gait Analysis System (Noldus Inc.). The gait analysis system identified multiple disturbances in the gait of untreated mature mice that survived perinatal sepsis. However, these gait disturbances were not present in mice treated with 20α-hydroxycholesterol.
Regularity Index: Regularity Index is a measure of interpaw coordination, and disturbances in regularity may be a result of cerebral injury. The Regularity Index was determined for uninjured control mice (FIG. 4A, FIG. 4D), sepsis mice (FIG. 4B, FIG. 4D), and septic mice treated with the oxysterol 20HC (FIG. 4C, FIG. 4D).
Stand and step cycle: Stand and step cycle are measures of the length of time the animal's paws are in contact with the platform as they walk. Increased stand and step cycle times are measures of gait instability.
Swing and swing speed: Swing and swing speed are measures of the animals “rocking” as they walk. While the swing was increased in perinatal sepsis survivors (FIG. 5C), the swing speed was decreased in sepsis survivors (FIG. 5D) consistant with an unsteady gait.

[2] = system: olig2APC+ oligodendrocytes in the periventricular white matter of the corpus callosum; test: Perinatal mouse model of sepsis-associated myelin injury, stereological oligodendrocyte counting; type: in vivo, mice; settings: sepsis injury on postnatal day 5; 100 mg/kg/day subcutaneous for 5 days from 24 hours after injury; stereology on postnatal day 25; p=0.001
Description: Quantification of oligodendrocyte cell numbers in the brain is critical to determining the impact of oxysterol therapy. Stereology is a useful research tool used by neuroscientists to provide accurate and unbiased estimates of cell numbers within specified brain regions. The number of oligodendrocyte numbers is determined using Stereo Investoigator™ software (MBF Bioscience) and a Zeiss Axiolmager M2 motorized fluorescent microscope with Apotome structured illumination. Perfusion fixed cryoprotected brains are frozen sectioned at […] and collected free-floating in phosphate buffered saline. […] Olig2+APC+ nucleated cells are then counted throughout the corpus callosum using a 63× oil objective lens.
Perinatal bowel perforation is a common complication of premature birth and is strongly linked to myelin injury and cerebral palsy. Using a perinatal mouse model of bowel perforation to induce sepsis-associated diffuse myelin injury on postnatal day 5, sepsis mice were determined to have a 60% reduction of mature oligodendrocytes at postnatal day 25 (FIG. 3).
To determine the efficacy of oxysterol therapy, the perinatal mouse model was employed to induce injury in mice on postnatal day 5. […] Coronal sections of the brains were analyzed using stereology on postnatal day 25 to determine the number of olig2APC+ oligodendrocytes in the periventricular white matter of the corpus callosum. […]

smoothened (SMO) = smoothened (SMO) (Homo sapiens, UniProt Q99835); settings: fibroblast cell culture systems; recent studies; cited from earlier work
[3] = system: primary neural stem cells from neonatal mice; test: In vitro oligodendrocyte differentiation from neural stem cells; type: cell-based
Description: To determine the impact of oxysterol exposure on cellular differentiation, primary neural stem cells from neonatal mice were cultured in chamber slides. Cells were cultured in media alone (control) or 1 μM 20α-hydroxycholesterol for 7 days were then allowed to differentiate for 18 days. The differentiated cells were immunostained for markers of oligodendrocytes (Olig2 and CNPase) and visualized on a confocal microscope (FIG. 1A). […] Protein samples from control and 20α-hydroxycholesterol treated stem cell cultures were then fractionated and probed for markers of the oligodendrocyte lineage.

[4] = system: olig2+ cells in the corpus callosum; test: In vivo oligodendrocyte differentiation in uninjured postnatal mice; settings: uninjured five-day old mice, 100 mg/kg/day subcutaneously, 4 daily doses, analyzed five days after final injection; vs vehicle; p<0.02
Description: 20α-hydroxycholesterol was administered to uninjured postnatal mice during the normal myelination period to determine if oxysterol exposure increased the numbers of oligodendrocytes in vivo. Five-day old mice were administered 4 daily doses of vehicle control (n=4) or 20α-hydroxycholesterol (n=4) subcutaneously (100 mg/kg/day) and rested. Five days after the final injection, the mice were analyzed to quantify the number of olig2+ cells in the corpus callosum (FIG. 2A, FIG. 2B).

[5] = system: Primary neural stem cells; test: In vitro oligodendrocyte differentiation from neural stem cells with breast milk-associated oxysterols (western blot); type: cell-based; settings: 1 μm and 0.5 μm for five days, then 18 days differentiation; FIG. 8
Description: FIG. 8 is a western blot analysis. Stem cells were treated with oxysterols at doses indicated for 5 days then allowed to differentiate for 18 days. Primary neural stem cells were treated with 24-hydroxycholesterol and 25-hydroxycholesterol at 1 μm and 0.5 μm for five days, then allowed to differentiate for 18 days. Protein lysates were probed for oligodendrocyte-associated proteins CNPase and myelin basic protein (MBP).

Chain of smoothened (SMO) (Q99835 28-787): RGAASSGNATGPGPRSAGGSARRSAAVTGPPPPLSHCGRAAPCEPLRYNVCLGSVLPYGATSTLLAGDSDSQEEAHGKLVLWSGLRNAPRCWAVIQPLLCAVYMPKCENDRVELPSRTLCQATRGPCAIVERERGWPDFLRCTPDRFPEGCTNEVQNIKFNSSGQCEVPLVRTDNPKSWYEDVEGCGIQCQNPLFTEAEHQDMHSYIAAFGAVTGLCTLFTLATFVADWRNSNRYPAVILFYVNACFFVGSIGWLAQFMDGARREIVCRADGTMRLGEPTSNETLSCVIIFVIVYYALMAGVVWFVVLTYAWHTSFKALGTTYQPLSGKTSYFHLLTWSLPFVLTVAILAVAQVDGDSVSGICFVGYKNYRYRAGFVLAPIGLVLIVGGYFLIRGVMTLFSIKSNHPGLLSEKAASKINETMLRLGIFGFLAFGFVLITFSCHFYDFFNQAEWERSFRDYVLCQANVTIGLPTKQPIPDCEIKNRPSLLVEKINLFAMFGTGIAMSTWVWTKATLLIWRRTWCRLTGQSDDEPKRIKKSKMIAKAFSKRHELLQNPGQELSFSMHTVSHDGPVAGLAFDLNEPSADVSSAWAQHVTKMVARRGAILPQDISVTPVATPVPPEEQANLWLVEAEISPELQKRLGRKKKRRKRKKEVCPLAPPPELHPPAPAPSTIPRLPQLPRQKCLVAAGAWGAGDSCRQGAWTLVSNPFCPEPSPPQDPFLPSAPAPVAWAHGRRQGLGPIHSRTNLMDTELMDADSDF

Structure (SMILES): CC(C)CCC[C@](C)(O)[C@H]1CC[C@H]2[C@@H]3CC=C4C[C@@H](O)CC[C@]4(C)[C@H]3CC[C@@]21C [20α-hydroxycholesterol]
- gait disturbances (CatWalk Gait Analysis System) ([1]; 100 mg/kg/day daily for five days, evaluated at two months of age): not present
- Regularity Index (interpaw coordination) ([1]; 100 mg/kg/day daily for five days, two months of age, FIG. 4D): completely reversed any observed deficits
- Swing and swing speed ([1]; FIG. 5C, 5D): reversed all of these measures of gait disturbances
- amount of oligodendrocytes (olig2APC+) within the periventricular white matter [2]: significantly increased
- SHH pathway activation via direct binding to smoothened (SMO) (smoothened (SMO)): activate the SHH pathway
- olig2+ CNPase+ cells (oligodendrocytes), cell counting ([3]; 1 μM for 7 days, then 18 days differentiation, vs media alone, p<0.02, FIG. 1C): significant increase
- CNPase, Olig2 and myelin basic protein (MBP), Western blot ([3]; 1 μM treated stem cell cultures vs control, FIG. 1D): increase
- olig2+ cell population in the corpus callosum [4]: significant increase

Structure (SMILES): C[C@H](CCCC(C)(C)O)[C@H]1CC[C@H]2[C@@H]3CC=C4C[C@@H](O)CC[C@]4(C)[C@H]3CC[C@]12C [25-hydroxycholesterol]
- expression of oligodendrocyte-associated proteins CNPase and MBP (western blot) [5]: induced expression

Structure (SMILES): CC(C)CC[C@@H](O)[C@@H](C)[C@H]1CC[C@H]2[C@@H]3CC=C4C[C@@H](O)CC[C@]4(C)[C@H]3CC[C@]12C [22α-hydroxycholesterol]
- SHH pathway activation via direct binding to smoothened (SMO) (smoothened (SMO)): activate the SHH pathway

Structure (SMILES): CC(C)C(O)CC[C@@H](C)[C@H]1CC[C@H]2[C@@H]3CC=C4C[C@@H](O)CC[C@]4(C)[C@H]3CC[C@]12C (some centres unmarked) [24-hydroxycholesterol]
- expression of oligodendrocyte-associated proteins CNPase and MBP (western blot) [5]: induced expression
